From US20150376216A1, “SUGAR-ANALOG PHOSPHORUS-CONTAINING HETEROCYCLES HAVING AN ANTI-METASTATIC ACTIVITY” (CENTRE NATIONAL DE LA RECHERCHE SCIENTIRIQUE, priority 2013, published 2015)
Where two headings read alike, the source gives them in different places.

How the values were obtained:
[1] = system: melanoma line MDAMB-435; assay: Boyden chamber migration test, MDAMB-435; assay type: cell-based, human; conditions: for Ki: 24 hours, read-out: Inhibition constant Ki, migration
Description: The effects of compounds 3.48a, 4.2a and 5.6d on the migration of cancer cells (human glioblastoma line SNB75 or primary culture of human glioblastoma Gli4F1, on the one hand, and MDAMB 435 and A431 on the other hand), were determined by performing a standard migration test in a Boyden chamber (treatment of the cells for 24 hours).
For this test, the compounds were dissolved in vitro and used in culture in 0.3% of DMSO. The interior of the inserts was covered with the extracellular matrix protein studied (laminin-1, vitronectin or fibronectin). The cells pretreated at various concentrations and untreated (controls) were deposited in the inserts covered with said protein at a rate of 50 000 cells/500 μl/insert in a medium containing 0.1% of BSA (bovine serum albumin).
500 μl of medium containing 10% fetal calf serum were then placed in each well of a Companion plate so as to allow the formation of a chemotactic gradient across the porous membrane. After 24 hours of migration in the incubator at 37° C., the supernatent was removed and the inserts rinsed with PBS on each face. The cells were counted with a microscope (Zeiss Axiophot, magnification ×200). This gives a percentage of migration relative to the untreated cells.
Table 2 below gives, for compound 3.48a, the values for the inhibition constants (Ki) for the migration of a human GBM line (SNB75), of GBM stem cell lines (Gli4, Gli7) and of a breast cancer line MDAMB231, in a Boyden chamber, on various extracellular matrix protein supports. Tables 3 and 4 below give, for compounds 4.2a and 5.6d, the values of the inhibition constants (Ki) for the migration of a melanoma line (MDAMB-435) or of an epidermoid cancer line (A431), in a Boyden chamber, on various extracellular matrix protein supports. The inhibitory effect depends on the line and the stem cells used, but also on the extracellular matrix protein support used.

[2] = system: MDAMB-435 melanoma line; assay: MTT antiproliferative test, MDAMB-435; assay type: cell-based; conditions: Homo sapiens, MDA-MB-435, 72 hours, read-out: IC50, inhibition of proliferation
Description: The lines MDAMB-435 and A431 are seeded at a density of 3000 cells per well in 96-well plates. After 24 hours, compounds 4.2a and 5.6d resuspended in 100% DMSO are added at concentrations of 0-0.001-0.010-0.1-1-10-50 μM for a final constant amount of DMSO of 0.3%. The cultures are maintained for a further 72 hours and an MTT colorimetric test is then performed. 100 μl of a solution of MTT at 5 mg/ml in PBS are added to the culture medium, which is left to incubate for 3 hours. The culture medium is removed and the cells are lyzed by adding 100 μL of a 4 mM HCl solvent, 0.1% Nondet P-40 (NP40) in isopropanol. The yellow tetrazolium MTT salt (3-(4,5-dimethylthiazol-2-yl)-2,5-diphenyl tetrazolium bromide), when it is reduced by the mitochondrial succinate dehydrogenase of active live cells, forms a blue-violet formazan product. The medium then changes from yellow to blue-violet. The intensity of this coloration at 590 nm is proportional to the number of live cells present during the test and gives an indication of the metabolic activity of these cells.
Table 1 gives the concentration values for 50% inhibition of proliferation (IC50) for compounds 4.2a and 5.6d on lines derived from bowel cancer (CaCo2), skin cancer (A431, MDAMB-435, B16F10), breast cancer (MDAMB-431), […] (HuH7), prostate cancer (DU145) and brain cancer (SNB75, Gli4, Gli7).

[3] = system: GLi4; assay: MTT antiproliferative test, Gli4; assay type: cell-based; conditions: Homo sapiens, read-out: IC50, inhibition of proliferation
Description: Several cancer cell lines were used for the in vivo or in vitro biological tests: • SNB75 is a human glioblastoma line derived from a primary culture, i.e. derived from a primary malignant cancer tumor. It forms part of the panel of 59 cancer lines referenced by the NCI. Its Cosmic reference number published by the Welcome Trust Sanger Institute is 905982. This line was supplied by a person (M.D. Ph.D of the department of “Radiation Oncology”, Stanford University Medical Center). It was cultured in Ham's F-12 and DMEM (1/1) supplemented with 10% fetal bovine serum. The experiments were performed with cells in the exponential growth phase. • Gli4 (or Gli4F11) and Gli7 are cultures of cancer strain cells derived from human glioblastomas (primary cultures). These lines are CD133^+, CD15^+ which are multipotent and tumorigenic in animals. They were established by J. P. Hugnot (INM INSERM U-1051 Eq. 4), and described in Guichet, P. O. et al, Glia 2013, 61(2), 225-239; • C6 is a rat glioblastoma line. It is referenced in the ATCC under the reference CCL-107. • MDAMB-435 is a melanoma line derived from a mammary melanoma. It forms part of the panel of 59 cancer lines referenced by the NCI. It is referenced at the ATCC under the reference HTB-129. It was cultured in Ham's F-12 and DMEM (1/1) supplemented with 10% fetal bovine serum. […]

Q: With CC1(C)O[C@H]2[C@@H]([C@H]3COC(C)(C)O3)O[P@](=O)(c3ccccc3)[C@@H](OC(=O)c3ccccc3)[C@H]2O1 [Compound 4.2a, (SPRSRR)-3-benzoate-4-(2,2-dimethyl-[1,3]dioxolan-4-yl)-2,2-dimethyl-2-oxo-2-phenyl-tetrahydro-2λ^5-[1,2]oxaphosphinane] as the compound, how does the IC50 ([1]; Homo sapiens, MDA-MB-435, on fibronectin or vitronectin, read-out: Concentration for a 50% decrease in migration of the cancer cells) read?
A: 10 to 100 nM

Q: What about the Ki ([1]; support Fibronectin) of the same compound?
A: 33 nM

Q: What about the Ki ([1]; support Laminin) of the same compound?
A: 34 nM

Q: What about the Ki ([1]; support Vitronectin) of the same compound?
A: 61 nM

Q: What about the IC50 [2] of the same compound?
A: 660 nM

Q: What about the IC50 [3] of the same compound?
A: 6810 nM
